Test results: ChEMBL document CHEMBL5370531, “Design, synthesis and pharmacological evaluation of 2,3-dihydrobenzofuran IRAK4 inhibitors for the treatment of diffuse large B-cell lymphoma” (Eur J Med Chem, 2023)
Active and inactive are the calls of the source. The calls are words filed in the database; no cut-off is given here.

Key:
OCI-Ly10 [1] = assay: Induction of apoptosis in human OCILY10 cells assessed as late apoptotic cells at 0.1 uM incubated for 24 hrs by Annexin V-FITC/PI staining based flow cytometry (reference value: 3.71 %); type: functional
OCI-Ly10 [2] = assay: Synergistic antiproliferative activity against human OCILY10 cells harboring MYD88 L265P assessed as inhibition of cell growth at 800 nM incubated for 72 hrs in presence of BTK inhibitor, ibrutinib at 25 nM by CCK-8 assay (reference value: 54.76 %); type: functional
[3] = target: Vascular endothelial growth factor receptor 3 (Homo sapiens) (UniProt P35916); assay: Inhibition of VEGFR3 (unknown origin) at 100 nM incubated for 1 hr in presence of ATP by ELISA analysis
[4] = target: Proto-oncogene tyrosine-protein kinase Src (Homo sapiens) (UniProt P12931); assay: Inhibition of SRC (unknown origin) at 100 nM incubated for 1 hr in presence of ATP by ELISA analysis
OCI-Ly10 [5] = assay: Induction of apoptosis in human OCILY10 cells assessed as late apoptotic cells at 1 uM incubated for 24 hrs by Annexin V-FITC/PI staining based flow cytometry (reference value: 3.71 %); type: functional
OCI-Ly10 [6] = assay: Synergistic antiproliferative activity against human OCILY10 cells harboring MYD88 L265P assessed as inhibition of cell growth at 1600 nM incubated for 72 hrs in presence of BTK inhibitor, ibrutinib at 12.5 nM by CCK-8 assay (reference value: 64.69 %); type: functional
OCI-Ly10 [7] = assay: Synergistic antiproliferative activity against human OCILY10 cells harboring MYD88 L265P assessed as inhibition of cell growth at 400 nM incubated for 72 hrs in presence of BTK inhibitor, ibrutinib at 25 nM by CCK-8 assay (reference value: 34.46 %); type: functional
OCI-Ly10 [8] = assay: Induction of apoptosis in human OCILY10 cells assessed as early apoptotic cells at 1 uM incubated for 24 hrs by Annexin V-FITC/PI staining based flow cytometry (reference value: 10 %); type: functional
OCI-Ly10 [9] = assay: Synergistic antiproliferative activity against human OCILY10 cells harboring MYD88 L265P assessed as inhibition of cell growth at 200 nM incubated for 72 hrs in presence of BTK inhibitor, ibrutinib at 25 nM by CCK-8 assay (reference value: 26.07 %); type: functional
[10] = target: Fibroblast growth factor receptor 3 (Homo sapiens) (UniProt P22607); assay: Inhibition of FGFR3 (unknown origin) at 100 nM incubated for 1 hr in presence of ATP by ELISA analysis
[11] = target: Tyrosine-protein kinase ITK/TSK (Homo sapiens) (UniProt Q08881); assay: Inhibition of ITK (unknown origin) at 100 nM incubated for 1 hr in presence of ATP by ELISA analysis
[12] = target: Tyrosine-protein kinase BTK (Homo sapiens) (UniProt Q06187); assay: Inhibition of BTK (unknown origin) at 100 nM incubated for 1 hr in presence of ATP by ELISA analysis
OCI-Ly10 [13] = assay: Induction of apoptosis in human OCILY10 cells assessed as early apoptotic cells at 0.1 uM incubated for 48 hrs by Annexin V-FITC/PI staining based flow cytometry (reference value: 5.4 %); type: functional
[14] = Cytotoxicity against human GM00637 cells assessed as inhibition of cell proliferation incubated for 72 hrs by CCK-8 assay; type: toxicity, cell-based
OCI-Ly10 [15] = assay: Cytotoxicity against human OCILY10 cells assessed as inhibition of cell proliferation incubated for 72 hrs by CCK-8 assay; type: functional, cell-based; conditions: OCI-Ly10, 72 h
[16] = target: Tyrosine-protein kinase ABL1 (Homo sapiens) (UniProt P00519); assay: Inhibition of ABL (unknown origin) at 100 nM incubated for 1 hr in presence of ATP by ELISA analysis
OCI-Ly10 [17] = assay: Induction of apoptosis in human OCILY10 cells assessed as upregulation of PARP cleavage at 0.1 to 1 uM incubated for 48 hrs by immunoblotting analysis; type: functional, cell-based; conditions: dose 0.1-1 µM
OCI-Ly10 [18] = assay: Synergistic antiproliferative activity against human OCILY10 cells harboring MYD88 L265P assessed as inhibition of cell growth at 1600 nM incubated for 72 hrs in presence of BTK inhibitor, ibrutinib at 6.2 nM by CCK-8 assay (reference value: 64.69 %); type: functional
U2932 = assay: Cytotoxicity against human U2932 cells assessed as inhibition of cell proliferation incubated for 72 hrs by CCK-8 assay; type: functional, cell-based; conditions: U2932, 72 h
OCI-Ly10 [19] = assay: Induction of apoptosis in human OCILY10 cells assessed as upregulation of caspase-3 cleavage at 0.1 to 1 uM incubated for 48 hrs by immunoblotting analysis; type: functional, cell-based; conditions: dose 0.1-1 µM
[20] = target: Insulin receptor (Homo sapiens) (UniProt P06213); assay: Inhibition of IR (unknown origin) at 100 nM incubated for 1 hr in presence of ATP by ELISA analysis
OCI-Ly10 [21] = assay: Induction of apoptosis in human OCILY10 cells harboring MYD88 L265P assessed as upregulation of PARP cleavage at 0.2 uM in presence of BTK inhibitor, ibrutinib by immunoblotting analysis; type: functional, cell-based
OCI-Ly10 [22] = assay: Synergistic antiproliferative activity against human OCILY10 cells harboring MYD88 L265P assessed as inhibition of cell growth at 100 nM incubated for 72 hrs in presence of BTK inhibitor, ibrutinib at 6.2 nM by CCK-8 assay (reference value: 21.36 %); type: functional
[23] = target: Receptor-type tyrosine-protein kinase FLT3 (Homo sapiens) (UniProt P36888); assay: Inhibition of FLT3 (unknown origin) at 100 nM incubated for 1 hr in presence of ATP by ELISA analysis relative to control
[24] = target: Platelet-derived growth factor receptor beta (Homo sapiens) (UniProt P09619); assay: Inhibition of PDGFR-beta (unknown origin) at 100 nM incubated for 1 hr in presence of ATP by ELISA analysis
OCI-Ly10 [25] = assay: Synergistic antiproliferative activity against human OCILY10 cells harboring MYD88 L265P assessed as inhibition of cell growth at 800 nM incubated for 72 hrs in presence of BTK inhibitor, ibrutinib at 12.5 nM by CCK-8 assay (reference value: 54.76 %); type: functional
[26] = target: Vascular endothelial growth factor receptor 2 (Homo sapiens) (UniProt P35968); assay: Inhibition of VEGFR2 (unknown origin) at 100 nM incubated for 1 hr in presence of ATP by ELISA analysis
OCI-Ly10 [27] = assay: Induction of apoptosis in human OCILY10 cells harboring MYD88 L265P assessed as upregulation of caspase-3 cleavage at 0.1 uM in presence of BTK inhibitor, ibrutinib by immunoblotting analysis; type: functional, cell-based
OCI-Ly10 [28] = assay: Synergistic antiproliferative activity against human OCILY10 cells harboring MYD88 L265P assessed as inhibition of cell growth at 800 nM incubated for 72 hrs in presence of BTK inhibitor, ibrutinib at 3.1 nM by CCK-8 assay (reference value: 54.76 %); type: functional

Chain of Tyrosine-protein kinase ABL1 (Homo sapiens) (P00519 whole entry): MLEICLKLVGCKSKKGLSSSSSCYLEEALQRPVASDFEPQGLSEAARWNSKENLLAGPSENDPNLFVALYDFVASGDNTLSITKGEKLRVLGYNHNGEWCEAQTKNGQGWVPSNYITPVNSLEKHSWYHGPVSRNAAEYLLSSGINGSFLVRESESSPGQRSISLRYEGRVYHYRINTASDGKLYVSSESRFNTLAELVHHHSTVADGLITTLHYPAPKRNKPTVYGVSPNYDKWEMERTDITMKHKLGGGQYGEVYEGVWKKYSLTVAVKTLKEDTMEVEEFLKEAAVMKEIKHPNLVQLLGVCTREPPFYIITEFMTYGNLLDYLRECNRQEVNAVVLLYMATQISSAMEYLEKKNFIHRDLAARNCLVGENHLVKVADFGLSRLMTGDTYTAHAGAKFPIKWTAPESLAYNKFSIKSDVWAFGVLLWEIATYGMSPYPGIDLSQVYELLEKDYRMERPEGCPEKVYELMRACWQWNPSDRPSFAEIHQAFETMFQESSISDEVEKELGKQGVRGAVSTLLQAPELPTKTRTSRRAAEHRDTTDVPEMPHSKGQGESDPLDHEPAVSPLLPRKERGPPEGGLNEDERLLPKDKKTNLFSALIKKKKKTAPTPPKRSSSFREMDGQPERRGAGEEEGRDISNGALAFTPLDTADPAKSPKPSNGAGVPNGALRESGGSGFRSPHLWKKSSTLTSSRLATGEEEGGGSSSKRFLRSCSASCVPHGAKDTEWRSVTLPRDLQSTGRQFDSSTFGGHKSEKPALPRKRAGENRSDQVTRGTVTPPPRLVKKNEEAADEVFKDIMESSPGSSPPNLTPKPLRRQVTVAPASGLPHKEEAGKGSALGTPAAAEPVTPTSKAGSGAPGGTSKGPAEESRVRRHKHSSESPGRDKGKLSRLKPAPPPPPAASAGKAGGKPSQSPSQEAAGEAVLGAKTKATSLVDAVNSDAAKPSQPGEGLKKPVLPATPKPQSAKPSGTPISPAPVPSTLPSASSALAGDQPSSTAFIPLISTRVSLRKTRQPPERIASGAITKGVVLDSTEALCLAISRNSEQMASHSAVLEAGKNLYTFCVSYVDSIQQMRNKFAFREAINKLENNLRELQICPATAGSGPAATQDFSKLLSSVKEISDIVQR
Chain of Vascular endothelial growth factor receptor 2 (Homo sapiens) (P35968 whole entry): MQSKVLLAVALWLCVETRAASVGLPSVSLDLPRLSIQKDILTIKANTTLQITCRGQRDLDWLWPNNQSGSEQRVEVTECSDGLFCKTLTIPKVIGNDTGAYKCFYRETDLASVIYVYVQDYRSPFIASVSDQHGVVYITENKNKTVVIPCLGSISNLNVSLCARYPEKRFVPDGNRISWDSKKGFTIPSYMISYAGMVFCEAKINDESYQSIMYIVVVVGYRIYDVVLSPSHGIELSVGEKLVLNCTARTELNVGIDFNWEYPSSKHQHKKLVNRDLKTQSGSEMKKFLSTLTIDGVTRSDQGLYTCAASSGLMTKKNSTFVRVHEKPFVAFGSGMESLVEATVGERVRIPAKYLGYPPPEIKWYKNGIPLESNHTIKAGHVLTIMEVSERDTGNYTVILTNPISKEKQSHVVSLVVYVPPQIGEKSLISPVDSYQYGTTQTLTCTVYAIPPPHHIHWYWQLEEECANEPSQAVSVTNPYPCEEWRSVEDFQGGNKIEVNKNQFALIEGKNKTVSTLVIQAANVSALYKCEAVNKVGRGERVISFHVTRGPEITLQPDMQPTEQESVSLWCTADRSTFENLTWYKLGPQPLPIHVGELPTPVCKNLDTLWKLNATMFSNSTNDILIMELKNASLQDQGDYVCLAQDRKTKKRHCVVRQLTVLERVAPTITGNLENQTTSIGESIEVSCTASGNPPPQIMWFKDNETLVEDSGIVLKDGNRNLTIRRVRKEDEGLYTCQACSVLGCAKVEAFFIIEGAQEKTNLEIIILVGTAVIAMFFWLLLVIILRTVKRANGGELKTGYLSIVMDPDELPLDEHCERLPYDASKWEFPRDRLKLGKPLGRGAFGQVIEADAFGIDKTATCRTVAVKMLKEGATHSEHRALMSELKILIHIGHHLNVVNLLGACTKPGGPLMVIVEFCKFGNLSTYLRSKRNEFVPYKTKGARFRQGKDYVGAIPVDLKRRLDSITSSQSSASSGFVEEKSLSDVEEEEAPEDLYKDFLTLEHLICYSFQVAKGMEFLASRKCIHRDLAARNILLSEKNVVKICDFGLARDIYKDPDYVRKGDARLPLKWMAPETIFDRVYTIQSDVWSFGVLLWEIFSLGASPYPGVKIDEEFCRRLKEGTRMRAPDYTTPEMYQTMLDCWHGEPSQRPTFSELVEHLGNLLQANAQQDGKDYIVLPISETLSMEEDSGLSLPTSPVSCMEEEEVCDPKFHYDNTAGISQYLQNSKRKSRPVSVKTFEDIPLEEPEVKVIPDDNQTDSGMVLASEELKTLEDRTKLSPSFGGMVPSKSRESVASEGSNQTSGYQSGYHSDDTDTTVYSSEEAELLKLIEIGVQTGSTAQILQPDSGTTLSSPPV
Chain of Platelet-derived growth factor receptor beta (Homo sapiens) (P09619 whole entry): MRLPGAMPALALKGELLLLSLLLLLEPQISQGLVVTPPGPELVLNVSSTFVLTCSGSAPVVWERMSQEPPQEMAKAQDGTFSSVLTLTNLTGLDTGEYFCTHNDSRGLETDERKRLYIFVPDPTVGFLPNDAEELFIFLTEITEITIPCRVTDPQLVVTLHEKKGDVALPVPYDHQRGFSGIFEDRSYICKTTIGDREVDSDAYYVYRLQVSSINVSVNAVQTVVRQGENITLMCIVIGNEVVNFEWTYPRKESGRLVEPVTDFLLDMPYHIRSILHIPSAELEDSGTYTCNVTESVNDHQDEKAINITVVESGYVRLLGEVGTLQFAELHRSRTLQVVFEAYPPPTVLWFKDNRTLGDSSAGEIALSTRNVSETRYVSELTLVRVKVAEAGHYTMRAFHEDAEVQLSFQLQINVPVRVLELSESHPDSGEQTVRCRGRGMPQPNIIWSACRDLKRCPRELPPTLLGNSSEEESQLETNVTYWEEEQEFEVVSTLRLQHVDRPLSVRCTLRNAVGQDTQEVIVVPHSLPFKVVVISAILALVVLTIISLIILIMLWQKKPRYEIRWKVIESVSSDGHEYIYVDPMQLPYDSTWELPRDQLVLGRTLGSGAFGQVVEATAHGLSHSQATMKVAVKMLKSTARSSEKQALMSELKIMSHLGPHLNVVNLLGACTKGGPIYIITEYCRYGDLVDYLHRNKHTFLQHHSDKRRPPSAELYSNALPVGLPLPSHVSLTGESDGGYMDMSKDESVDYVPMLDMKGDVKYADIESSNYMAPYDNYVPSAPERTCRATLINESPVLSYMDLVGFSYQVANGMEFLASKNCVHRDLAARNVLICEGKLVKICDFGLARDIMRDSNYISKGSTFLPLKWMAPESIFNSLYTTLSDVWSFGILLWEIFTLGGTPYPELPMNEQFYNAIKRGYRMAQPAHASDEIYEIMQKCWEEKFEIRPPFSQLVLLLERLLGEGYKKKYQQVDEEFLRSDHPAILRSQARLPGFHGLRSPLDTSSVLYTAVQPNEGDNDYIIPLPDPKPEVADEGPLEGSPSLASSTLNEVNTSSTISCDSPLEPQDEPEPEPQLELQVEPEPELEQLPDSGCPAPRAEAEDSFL
Chain of Receptor-type tyrosine-protein kinase FLT3 (Homo sapiens) (P36888 whole entry): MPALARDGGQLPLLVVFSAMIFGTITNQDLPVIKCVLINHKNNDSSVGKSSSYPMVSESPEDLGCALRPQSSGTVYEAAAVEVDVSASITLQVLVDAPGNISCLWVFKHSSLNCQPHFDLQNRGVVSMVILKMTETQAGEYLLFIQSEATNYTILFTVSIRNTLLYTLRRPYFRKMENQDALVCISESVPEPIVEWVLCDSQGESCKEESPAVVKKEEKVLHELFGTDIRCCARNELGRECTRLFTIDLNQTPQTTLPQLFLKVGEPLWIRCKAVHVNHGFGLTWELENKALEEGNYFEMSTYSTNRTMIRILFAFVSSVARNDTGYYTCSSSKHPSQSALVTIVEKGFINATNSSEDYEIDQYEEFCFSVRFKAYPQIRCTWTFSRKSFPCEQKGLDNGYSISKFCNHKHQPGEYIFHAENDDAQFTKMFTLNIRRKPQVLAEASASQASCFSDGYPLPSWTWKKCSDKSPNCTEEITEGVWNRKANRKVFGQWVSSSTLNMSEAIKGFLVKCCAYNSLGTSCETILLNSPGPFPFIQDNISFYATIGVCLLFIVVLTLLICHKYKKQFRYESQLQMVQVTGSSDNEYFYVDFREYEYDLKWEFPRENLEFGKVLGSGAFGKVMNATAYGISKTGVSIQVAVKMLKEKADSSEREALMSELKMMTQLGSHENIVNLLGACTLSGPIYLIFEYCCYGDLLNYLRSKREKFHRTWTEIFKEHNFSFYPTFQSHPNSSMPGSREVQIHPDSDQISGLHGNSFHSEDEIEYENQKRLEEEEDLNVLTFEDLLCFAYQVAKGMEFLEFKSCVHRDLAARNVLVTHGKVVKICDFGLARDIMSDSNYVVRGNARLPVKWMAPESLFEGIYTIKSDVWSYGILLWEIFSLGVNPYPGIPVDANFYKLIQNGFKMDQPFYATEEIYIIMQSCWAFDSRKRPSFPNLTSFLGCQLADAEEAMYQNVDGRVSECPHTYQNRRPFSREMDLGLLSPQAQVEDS
Chain of Proto-oncogene tyrosine-protein kinase Src (Homo sapiens) (P12931 2-536 limits assumed): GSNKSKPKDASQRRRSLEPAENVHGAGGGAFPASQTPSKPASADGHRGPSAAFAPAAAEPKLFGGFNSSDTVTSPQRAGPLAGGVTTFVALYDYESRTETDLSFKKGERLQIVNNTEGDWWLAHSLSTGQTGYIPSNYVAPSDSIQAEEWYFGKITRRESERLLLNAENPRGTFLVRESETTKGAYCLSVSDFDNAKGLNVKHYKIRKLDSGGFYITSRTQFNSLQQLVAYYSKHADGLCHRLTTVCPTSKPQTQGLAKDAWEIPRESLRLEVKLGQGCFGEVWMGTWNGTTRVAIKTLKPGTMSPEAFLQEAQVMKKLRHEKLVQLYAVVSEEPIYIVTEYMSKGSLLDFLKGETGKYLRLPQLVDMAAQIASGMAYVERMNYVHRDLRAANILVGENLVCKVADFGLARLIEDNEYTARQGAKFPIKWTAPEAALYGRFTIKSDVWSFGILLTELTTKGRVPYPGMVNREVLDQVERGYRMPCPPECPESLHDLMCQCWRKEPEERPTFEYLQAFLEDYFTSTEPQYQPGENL

Cn1cc(-c2cc3c(cc2NC(=O)c2coc(-c4ccnc(N)c4)n2)CC(C)(C)O3)cn1
Activity (OCI-Ly10 [1]): 7.94%
inhibition at 0.8 µM (OCI-Ly10 [2]): 88.4%
inhibition [3]: inactive
inhibition [4]: inactive
Activity (OCI-Ly10 [5]): 33.7%
inhibition at 1.6 µM (OCI-Ly10 [6]): 88.7%
inhibition at 0.4 µM (OCI-Ly10 [7]): 83.2%
Activity (OCI-Ly10 [8]): 36.4%
inhibition at 0.2 µM (OCI-Ly10 [9]): 75.4%
inhibition [10]: inactive
inhibition [11]: inactive
inhibition [12]: inactive
Activity (OCI-Ly10 [13]): 12.9%
IC50 at 72 h [14]: 1.52 µM
IC50 (OCI-Ly10 [15]): 0.248 µM
inhibition [16]: inactive
Activity (OCI-Ly10 [17]): Active
inhibition at 1.6 µM (OCI-Ly10 [18]): 88.6%
IC50 (U2932): 1.25 µM
Activity (OCI-Ly10 [19]): Active
inhibition [20]: inactive
Activity (OCI-Ly10 [21]): Active
inhibition at 0.1 µM (OCI-Ly10 [22]): 44.9%
inhibition [23]: > 50%
inhibition [24]: inactive
inhibition at 0.8 µM (OCI-Ly10 [25]): 86.4%
inhibition [26]: inactive
Activity (OCI-Ly10 [27]): Active
inhibition at 0.8 µM (OCI-Ly10 [28]): 64.6%
